In test [1] the target is T1, CK1α (Homo sapiens, UniProt P48729+Q96SW2).
T1 construct: effects of the compounds of the present disclosure on the expression of target proteins in cells; endogenous in cells; host or cells: human PBMCs (Milecell Biotechnologies)
The experiment in a line: Western blot, degradation of substrate protein in hPBMCs. Type of test: cell-based. Conditions: 24 hours treatment, compounds at 50 nM and 500 nM (concentration behind the class not stated). On the technique in general: A western blot detects proteins with antibodies after separation by electrophoresis.

Test [2] has as its target T2, IKZF1 (Homo sapiens, UniProt Q13422+Q96SW2).
T2 construct: effects of the compounds of the present disclosure on the expression of target proteins in cells; endogenous in cells; host or cells: human PBMCs (Milecell Biotechnologies)
Described as above. Type of test: cell-based. Conditions: 24 hours treatment, compounds at 50 nM and 500 nM (concentration behind the class not stated).

In test [3] the target is T3, IKZF2 (Homo sapiens, UniProt Q96SW2+Q9UKS7).
T3 construct: effects of the compounds of the present disclosure on the expression of target proteins in cells; endogenous in cells; host or cells: human PBMCs (Milecell Biotechnologies)
The description is as above. Conditions: 24 hours treatment, compounds at 50 nM and 500 nM (concentration behind the class not stated). The test is classed as cell-based.

The target of test [4] is T4, IKZF3 (Homo sapiens, UniProt Q96SW2+Q9UKT9).
T4 construct: effects of the compounds of the present disclosure on the expression of target proteins in cells; endogenous in cells; host or cells: human PBMCs (Milecell Biotechnologies)
The description is as above. Type of test: cell-based. Conditions: 24 hours treatment, compounds at 50 nM and 500 nM (concentration behind the class not stated).

The target in test [5] is T5, WEE1 (Homo sapiens, UniProt P30291+Q96SW2).
T5 construct: effects of the compounds of the present disclosure on the expression of target proteins in cells; endogenous in cells; host or cells: human PBMCs (Milecell Biotechnologies)
Described as above. Type of test: cell-based. Conditions: 24 hours treatment, compounds at 50 nM and 500 nM (concentration behind the class not stated).

For test [6], the system named is GSPT1. The description is as above. The test is classed as cell-based, Human. Conditions: 24 hours treatment, compounds at 50 nM and 500 nM (concentration behind the class not stated).
Test [7] concerns the target T6, human Cereblon WT GST-tagged protein (Homo sapiens, UniProt Q96SW2).
T6 construct: purchased CISBIO 64BDCRBNPEH
The experiment in a line: CRBN-binding affinity, HTRF (CEREBLON BINDING kit). Conditions: for inhibition at 0.5 µM: read-out: Inhibition Rate at 0.5 µM (%); for inhibition at 2 µM: read-out: Inhibition Rate at 2 µM (%). In general terms: In TR-FRET formats the signal depends on donor and acceptor labels being close together.

For test [8], the system named is Human monocytic leukemia cell line: THP-1. The test is described as follows: Tumor cell proliferation inhibition (CellTiter-Meiluncell luminescent cell viability assay). Conditions: THP-1, 96 h; for inhibition at 0.01 µM: read-out: Inhibition Rate at 10 nM (%); for inhibition at 0.5 µM: read-out: Inhibition Rate at 500 nM (%).
Description: (§1) The tumor cells used herein were cultured in a cell culture medium listed in table 2 at 37°C in an incubator with 5% CO2. Prior to experimentation, all cell lines used were correctly identified by STR profiling, and tested negative for mycoplasma contamination using a mycoplasma detection kit through routine screenings.
(§2) The IC50 values of the compounds of the present disclosure (including the compounds in Table 1 and Examples) were determined using the CellTiter-Meiluncell Luminescent Cell Viability Assay Kit from Dalian Meilun Biotech Co., Ltd. The detailed procedure is as follows: Tumor cells were seeded in 96-well cell culture plates at the densities specified in Table 3. On the following day, the test compounds of the present disclosure were subjected to serial dilution. The dilution can be performed according to one of the following two methods: • (1) The first dilution method: The test compounds of the present disclosure (including the compounds in Table 1 and Examples) were subjected to 5-fold serial dilutions starting from a highest concentration of 2000 µM, resulting in a total of 9 concentrations from high to low (2000, 400, 80, 16, 3.2, 0.64, 0.128, 0.0256, 0.00512 µM). Subsequently, 0.5 µL of the test compound dilution was transferred into the 96-well plate containing the cells, with each well containing 100 µL of cell culture medium. […] Into the 96-well plate, the diluted test compounds and corresponding detection reagents were added, resulting in final test compound concentrations of 500 nM and 10 nM, respectively. The experimental procedure is described below using the diluted 2 µM test compound as an example.
(§3) 0.5 µL of the aforementioned diluted compound of the present disclosure (including the compounds in Table 1 and Examples) was added to the seeded cells in 100 µL of medium, yielding a final test compound concentration of 10 nM. After the cells were treated with the compounds of the present disclosure for a specified period, the cell viability assay reagent was added to the culture medium according to the kit's instructions to determine cell viability. […] All controls were treated using the same procedure as the compounds of the present disclosure. The growth inhibition curves for the compounds of the present disclosure were plotted using Prism GraphPad software, and the IC50 values were calculated therefrom.
Test [9] concerns Human colon cancer cell line: SW620. Described as above. Conditions: SW-620, 96 h; for inhibition at 0.01 µM: read-out: Inhibition Rate at 10 nM (%); for inhibition at 0.5 µM: read-out: Inhibition Rate at 500 nM (%).
Description: as §1, §2, §3
Test [10] concerns Human malignant melanoma cell line: A375. The description is as above. Conditions: A-375, 96 h; for inhibition at 0.01 µM: read-out: Inhibition Rate at 10 nM (%); for inhibition at 0.5 µM: read-out: Inhibition Rate at 500 nM (%).
Description: as §1, §2, §3

T4 sequence (Q9UKT9 whole entry): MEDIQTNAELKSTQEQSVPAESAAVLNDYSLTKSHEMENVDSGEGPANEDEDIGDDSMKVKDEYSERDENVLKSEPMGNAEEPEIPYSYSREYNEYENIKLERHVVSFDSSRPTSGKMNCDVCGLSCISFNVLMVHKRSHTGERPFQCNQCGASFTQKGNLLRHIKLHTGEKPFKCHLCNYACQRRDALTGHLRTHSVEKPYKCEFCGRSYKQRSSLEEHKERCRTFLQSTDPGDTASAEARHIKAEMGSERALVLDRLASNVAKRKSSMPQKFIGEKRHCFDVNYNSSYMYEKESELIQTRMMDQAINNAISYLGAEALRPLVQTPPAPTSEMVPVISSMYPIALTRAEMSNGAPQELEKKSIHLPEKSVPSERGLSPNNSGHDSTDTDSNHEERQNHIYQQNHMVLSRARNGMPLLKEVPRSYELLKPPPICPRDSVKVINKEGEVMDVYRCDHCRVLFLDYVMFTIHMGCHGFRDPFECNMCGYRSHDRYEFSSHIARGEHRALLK
T4 sequence (Q96SW2 whole entry): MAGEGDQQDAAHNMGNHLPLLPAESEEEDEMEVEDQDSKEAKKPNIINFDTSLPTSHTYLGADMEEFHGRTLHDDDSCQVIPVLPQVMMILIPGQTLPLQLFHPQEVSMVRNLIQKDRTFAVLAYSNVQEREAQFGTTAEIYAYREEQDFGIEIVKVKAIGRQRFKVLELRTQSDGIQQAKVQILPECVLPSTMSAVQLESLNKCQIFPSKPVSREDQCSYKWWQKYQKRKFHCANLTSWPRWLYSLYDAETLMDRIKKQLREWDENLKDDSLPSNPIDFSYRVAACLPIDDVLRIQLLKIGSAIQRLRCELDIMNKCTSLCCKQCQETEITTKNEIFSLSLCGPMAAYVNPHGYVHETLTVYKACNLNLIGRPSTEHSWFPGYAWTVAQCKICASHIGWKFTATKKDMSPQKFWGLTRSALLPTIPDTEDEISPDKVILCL
T4 sequence (Q16531 whole entry partner): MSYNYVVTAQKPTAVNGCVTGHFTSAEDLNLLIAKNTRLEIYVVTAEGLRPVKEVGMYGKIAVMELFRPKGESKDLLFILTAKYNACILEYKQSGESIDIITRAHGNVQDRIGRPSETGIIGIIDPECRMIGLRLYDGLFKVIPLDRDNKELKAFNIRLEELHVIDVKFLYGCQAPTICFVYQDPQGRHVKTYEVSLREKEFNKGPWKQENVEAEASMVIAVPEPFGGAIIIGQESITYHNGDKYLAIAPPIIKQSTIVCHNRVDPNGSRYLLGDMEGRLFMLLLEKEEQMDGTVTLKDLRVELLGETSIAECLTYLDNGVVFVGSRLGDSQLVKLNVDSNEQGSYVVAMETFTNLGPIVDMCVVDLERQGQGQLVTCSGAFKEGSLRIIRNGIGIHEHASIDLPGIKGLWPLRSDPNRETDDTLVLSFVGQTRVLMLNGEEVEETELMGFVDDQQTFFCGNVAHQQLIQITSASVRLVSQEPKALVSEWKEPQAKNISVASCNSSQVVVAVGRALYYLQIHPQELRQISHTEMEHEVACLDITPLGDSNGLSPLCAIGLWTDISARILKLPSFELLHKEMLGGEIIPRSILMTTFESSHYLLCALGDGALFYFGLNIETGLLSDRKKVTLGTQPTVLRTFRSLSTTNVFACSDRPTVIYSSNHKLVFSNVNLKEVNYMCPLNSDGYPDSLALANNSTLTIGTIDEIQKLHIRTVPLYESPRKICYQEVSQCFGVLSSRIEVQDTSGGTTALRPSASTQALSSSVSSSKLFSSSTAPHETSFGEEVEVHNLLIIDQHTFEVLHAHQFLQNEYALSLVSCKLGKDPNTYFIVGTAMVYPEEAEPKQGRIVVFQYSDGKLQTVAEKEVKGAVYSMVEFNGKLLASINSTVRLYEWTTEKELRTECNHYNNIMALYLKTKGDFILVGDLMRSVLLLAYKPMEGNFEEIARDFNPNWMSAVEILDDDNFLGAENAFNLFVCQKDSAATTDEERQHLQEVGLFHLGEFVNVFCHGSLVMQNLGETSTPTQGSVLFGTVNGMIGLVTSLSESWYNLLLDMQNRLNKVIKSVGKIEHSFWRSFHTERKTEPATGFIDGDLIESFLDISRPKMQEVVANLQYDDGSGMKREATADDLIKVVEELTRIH
T2 sequence (Q13422 whole entry): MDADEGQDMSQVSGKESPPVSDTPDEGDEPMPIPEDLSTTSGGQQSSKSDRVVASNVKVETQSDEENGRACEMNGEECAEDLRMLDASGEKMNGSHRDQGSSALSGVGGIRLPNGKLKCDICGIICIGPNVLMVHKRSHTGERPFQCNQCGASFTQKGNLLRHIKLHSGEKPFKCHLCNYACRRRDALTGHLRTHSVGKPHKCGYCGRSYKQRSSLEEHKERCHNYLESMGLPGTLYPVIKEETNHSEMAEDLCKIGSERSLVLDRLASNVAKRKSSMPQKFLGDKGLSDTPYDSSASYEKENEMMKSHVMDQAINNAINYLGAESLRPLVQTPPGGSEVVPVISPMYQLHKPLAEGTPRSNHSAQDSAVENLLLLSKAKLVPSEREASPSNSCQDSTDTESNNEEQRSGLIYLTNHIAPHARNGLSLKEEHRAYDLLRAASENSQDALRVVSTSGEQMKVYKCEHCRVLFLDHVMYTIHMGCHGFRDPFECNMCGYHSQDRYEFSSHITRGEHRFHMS
T2 sequence (Q96SW2 whole entry): as the sequence (Q96SW2 whole entry) above
T2 sequence (Q16531 whole entry partner): as the sequence (Q16531 whole entry partner) above
T5 sequence (P30291 whole entry): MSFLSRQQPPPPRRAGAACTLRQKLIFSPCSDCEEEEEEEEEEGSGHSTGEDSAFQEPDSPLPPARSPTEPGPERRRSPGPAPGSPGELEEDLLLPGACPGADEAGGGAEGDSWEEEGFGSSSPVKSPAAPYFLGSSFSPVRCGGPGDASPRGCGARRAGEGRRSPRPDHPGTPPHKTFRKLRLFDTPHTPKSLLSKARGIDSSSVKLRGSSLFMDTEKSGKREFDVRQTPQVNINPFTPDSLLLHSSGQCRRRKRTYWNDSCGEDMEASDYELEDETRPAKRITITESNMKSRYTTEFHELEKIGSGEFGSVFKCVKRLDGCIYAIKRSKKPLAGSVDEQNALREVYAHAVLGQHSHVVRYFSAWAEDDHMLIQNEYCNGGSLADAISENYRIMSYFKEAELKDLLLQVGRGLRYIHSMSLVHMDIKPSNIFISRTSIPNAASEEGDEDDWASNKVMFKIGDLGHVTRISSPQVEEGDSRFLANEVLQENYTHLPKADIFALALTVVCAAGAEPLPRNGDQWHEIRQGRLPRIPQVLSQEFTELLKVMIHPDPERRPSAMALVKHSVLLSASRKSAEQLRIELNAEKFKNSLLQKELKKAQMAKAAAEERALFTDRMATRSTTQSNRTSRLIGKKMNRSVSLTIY
T5 sequence (Q96SW2 whole entry): as the sequence (Q96SW2 whole entry) above
T5 sequence (Q16531 whole entry partner): as the sequence (Q16531 whole entry partner) above
T6 sequence (Q96SW2 whole entry): as the sequence (Q96SW2 whole entry) above
T3 sequence (Q9UKS7 whole entry): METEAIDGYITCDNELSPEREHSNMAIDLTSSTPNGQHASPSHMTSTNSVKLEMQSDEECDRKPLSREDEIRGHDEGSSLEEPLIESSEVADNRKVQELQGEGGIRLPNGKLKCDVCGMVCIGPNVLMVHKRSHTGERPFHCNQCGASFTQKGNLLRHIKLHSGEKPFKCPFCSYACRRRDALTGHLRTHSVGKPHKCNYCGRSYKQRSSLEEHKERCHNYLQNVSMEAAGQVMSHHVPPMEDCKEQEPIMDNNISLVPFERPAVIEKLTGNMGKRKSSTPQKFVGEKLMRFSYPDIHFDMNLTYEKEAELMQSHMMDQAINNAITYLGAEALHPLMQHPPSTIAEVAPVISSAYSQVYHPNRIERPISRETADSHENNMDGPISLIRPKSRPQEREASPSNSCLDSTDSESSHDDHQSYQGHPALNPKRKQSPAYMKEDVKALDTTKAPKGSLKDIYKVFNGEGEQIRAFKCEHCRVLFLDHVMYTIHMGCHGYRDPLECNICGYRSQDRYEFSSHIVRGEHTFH
T3 sequence (Q96SW2 whole entry): as the sequence (Q96SW2 whole entry) above
T3 sequence (Q16531 whole entry partner): as the sequence (Q16531 whole entry partner) above
T1 sequence (P48729 whole entry): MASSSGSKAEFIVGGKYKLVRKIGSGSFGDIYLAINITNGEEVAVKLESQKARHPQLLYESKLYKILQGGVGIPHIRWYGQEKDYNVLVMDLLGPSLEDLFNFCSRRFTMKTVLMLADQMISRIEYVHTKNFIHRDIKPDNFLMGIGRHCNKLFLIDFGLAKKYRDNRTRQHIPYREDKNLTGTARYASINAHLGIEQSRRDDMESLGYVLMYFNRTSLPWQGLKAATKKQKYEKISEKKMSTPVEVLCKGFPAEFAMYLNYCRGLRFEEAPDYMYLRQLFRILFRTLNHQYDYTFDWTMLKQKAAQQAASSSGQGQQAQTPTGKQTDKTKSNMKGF
T1 sequence (Q96SW2 whole entry): as the sequence (Q96SW2 whole entry) above
T1 sequence (Q16531 whole entry partner): as the sequence (Q16531 whole entry partner) above

One may read the inhibition as the change of the read-out against control, counted positive when it falls. Consider `O=C1CCC(N2Cc3cc(CN4CC=C(c5ncnc6sccc56)CC4)ccc3C2=S)C(=O)N1` (stereo not drawn) [GT-09314, 3-(5-((4-(thieno[2,3-d]pyrimidin-4-yl)-3,6-dihydropyridin-1(2H)-yl)methyl)-1-thioxoisoindolin-2-yl)piperidine-2,6-dione], for which the “CK1α substrate protein remaining %” value in test [1] was “B (80%< substrate protein remaining %≤ 100%)”. Further, the “IKZF 1 substrate protein remaining %” value in test [2] is given as “A (0% ≤ substrate protein remaining % ≤ 80%)”. Moreover, the “IKZF2 substrate protein remaining %” value in test [3] was “B (80%< substrate protein remaining %≤ 100%)”. For the same compound, the “IKZF3 substrate protein remaining %” value in test [4] was “A (0% ≤ substrate protein remaining % ≤ 80%)”. Further, in [5], the “Wee1 substrate protein remaining %” value is reported as “A (0% ≤ substrate protein remaining % ≤ 80%)”. Moreover, in test [6], the “GSPT1 substrate protein remaining %” value was “A (0% ≤ substrate protein remaining % ≤ 80%)”. Moreover, the inhibition at 0.5 µM lay within 80 to 100% in [7], 80 to 100% in [8], 80 to 100% in test [9] and 40 to 50% in test [10]. The inhibition at 2 µM in test [7] fell in the range of 80 to 100%. Besides, the inhibition at 0.01 µM in test [8] is 5 to 10%; in [9] it was 10 to 20%; in [10], 5 to 10%.

On to `Cc1cc2c(C3=CCN(Cc4ccc5c(c4)CN(C4CCC(=O)NC4=O)C5=S)CC3)ncnc2s1` (stereo not drawn) [GT-09316, 3-(5-((4-(6-methylthieno[2,3-d]pyrimidin-4-yl)-3,6-dihydropyridin-1(2H)-yl)methyl)-1-thioxoisoindolin-2-yl)piperidine-2,6-dione], for which the “CK1α substrate protein remaining %” value in [1] was “B (80%< substrate protein remaining %≤ 100%)”. For the same compound, the “IKZF 1 substrate protein remaining %” value in test [2] was “A (0% ≤ substrate protein remaining % ≤ 80%)”. In test [3], the “IKZF2 substrate protein remaining %” value is given as “B (80%< substrate protein remaining %≤ 100%)”. Also, the “IKZF3 substrate protein remaining %” value in test [4] is on record as “A (0% ≤ substrate protein remaining % ≤ 80%)”. Further, the “Wee1 substrate protein remaining %” value in test [5] is “B (80%< substrate protein remaining %≤ 100%)”. In addition, in test [6], the “GSPT1 substrate protein remaining %” value is recorded as “A (0% ≤ substrate protein remaining % ≤ 80%)”. Also, the inhibition at 0.5 µM lay within 60 to 80% in test [7], 80 to 100% in test [8], 80 to 100% in test [9] and 80 to 100% in test [10]. Also, in test [7], the inhibition at 2 µM lay in the range of 80 to 100%. The inhibition at 0.01 µM in [8] fell in the range of 5 to 10%; in test [9], 10 to 20%; in test [10] it was 30 to 40%.

For `Cc1sc2ncnc(C3=CCN(Cc4ccc5c(c4)CN(C4CCC(=O)NC4=O)C5=S)CC3)c2c1C` (stereo not drawn) [GT-09318, 3-(5-((4-(5,6-dimethylthieno[2,3-d]pyrimidin-4-yl)-3,6-dihydropyridin-1(2H)-yl)methyl)-1-thioxoisoindolin-2-yl)piperidine-2,6-dione], in test [1], the “CK1α substrate protein remaining %” value is recorded as “B (80%< substrate protein remaining %≤ 100%)”. In test [2], the “IKZF 1 substrate protein remaining %” value is listed as “B (80%< substrate protein remaining %≤ 100%)”. Besides, the “IKZF2 substrate protein remaining %” value in [3] was “B (80%< substrate protein remaining %≤ 100%)”. Also, the “IKZF3 substrate protein remaining %” value in test [4] is “A (0% ≤ substrate protein remaining % ≤ 80%)”. For the same compound, in test [5], the “Wee1 substrate protein remaining %” value is reported as “A (0% ≤ substrate protein remaining % ≤ 80%)”. For the same compound, in [6], the “GSPT1 substrate protein remaining %” value is on record as “A (0% ≤ substrate protein remaining % ≤ 80%)”. Also, the inhibition at 0.5 µM in test [7] fell in the range of 53 to 60%; in test [8], 80 to 100%; in [9], 80 to 100%; in test [10], 60 to 70%. Further, in test [7], the inhibition at 2 µM fell in the range of 80 to 100%. The inhibition at 0.01 µM in [8] lay within 10 to 20%; in [9] it was 10 to 20%; in test [10], 20 to 30%.
